Results from patent US9701709B2 (REATA PHARMACEUTICALS, INC., priority 2012, dated 2017).
Where two headings read alike, the source gives them in different places.

How the values were obtained:
cardiovascular function = assay: Cardiovascular evaluation in conscious cynomolgus monkeys (telemetry); format: in vivo, cynomolgus monkey
Protocol: Animals were instrumented with telemetry transmitters for measurement of body temperature, blood pressure, heart rate, and electrocardiogram (ECG) evaluation. Body temperature, systolic, diastolic, and mean arterial blood pressure, heart rate, and ECG parameters (QRS duration and RR, PR, and QT intervals) were monitored continuously from at least 2 h pre-dose until at least 24 h post-dose. ECG tracings were printed at designated time points from the cardiovascular monitoring data and were qualitatively evaluated by a board-certified veterinary cardiologist.
Observations for morbidity, mortality, injury, and availability of food and water were conducted at least twice daily for all animals. Clinical observations were conducted pre-dose, approximately 4 h post-dose, and following completion of the cardiovascular monitoring period. Body weights were measured and recorded on the day prior to each treatment administration.

[1] = tested on: Nrf2 target genes (NQO1, HMOX1, GCLM, TXNRD1) in HFL1 lung fibroblasts; assay: Nrf2 target gene mRNA (qPCR) in HFL1; format: cell-based, human; conditions: HFL1, 18 h
Protocol: HFL1 cells were cultured in F-12K media supplemented with 10% fetal bovine serum and 1% penicillin-streptomycin. BEAS-2B cells were cultured in DMEM/F-12 media supplemented with 10% fetal bovine serum and 1% penicillin-streptomycin. […] Each well received the same amount of vehicle. Following treatment, media was removed and cells were harvested using RLT buffer (Qiagen). Lysates were homogenized using QIAShredder columns (Qiagen, Catalog #79654) and RNA was isolated using RNeasy Mini kits (Qiagen, Catalog #74104). For reverse transcription, RNA (1 μg) was combined with Oligo(dT)12-18 primer and H2O in a final volume of 23.25 μL. The mixture was heated to 70° C. for 10 min and then placed on ice. A master mix containing 8 μL 5×1st strand buffer, 2 μL 1 mg/ml BSA, 2 μL 20 mM DTT, 4 μL 5 mM dNTP mix, 0.25 μL RNaseOUTTM and 0.5 μL […]® II reverse transcriptase was added to the RNA mixture and incubated at 42° C. for 1 h. The reaction was inactivated by heating to 70° C. for 10 min. The reaction mixture was diluted 1:3 with H2O prior to use in qPCR. […] The relative abundance of each Nrf2 target gene was determined using the comparative CT method (ΔΔCT). […]

CYP2D6 = CYP2D6 (Homo sapiens, UniProt P10635); assay: CYP450 inhibition in pooled human liver microsomes, CYP2D6; format: in vitro ADME; conditions: highest concentration tested (3 μM)
From the text: In addition, there was little or no evidence of metabolism-dependent inhibition of any of the enzymes tested.

[2] = tested on: fractionated radiation dermatitis; assay: Fractionated radiation dermatitis in Balb/c mice; format: in vivo, mouse; conditions: for % Days ≧ 2 (dermatitis score) / % Days ≧ 3 (dermatitis score): 6 × 10 Gy
Protocol: The mice were irradiated on days 0-2 and 5-7 with six 10-Gy doses […]. Clinical dermatitis scores for the mice were evaluated blindly every two days from day 4 until the end of the study. […] Study and treatment parameters can be found in Table 6.
By analyzing the average clinical scores that were shown in FIG. 46, an area under the curve (AUC) analysis was performed, which yielded the severity of the dermatitis relative to how long the dermatitis persisted.

[3] = tested on: NF-κB in NIH3T3/NF-κB-luc cell line; assay: NF-κB luciferase reporter in NIH3T3/NF-κB-luc; format: cell-based; conditions: Mus musculus
From the text: (b) TNF-α-induced activation of an NF-κB luciferase reporter in the mouse NIH3T3 cell line.
NF-κB is a transcription factor that plays a central role in the regulation of many immune and inflammatory responses. […] The NIH3T3/NF-κB-luc cell line maintains a chromosomal integration of a Firefly luciferase reporter construct regulated by eight copies of the NF-κB response element. The effects of these compounds can be quantified by measuring the value of the NF-κB IC50.

[4] = Plasma protein binding (ultracentrifugation), monkey
[5] = tested on: bleomycin-induced pulmonary fibrosis
[6] = 28-day toxicity study in rats; format: in vivo, rat
[7] = 3 and 10 mg/kg daily for 28 days

Sequence of CYP2D6 (P10635 whole entry): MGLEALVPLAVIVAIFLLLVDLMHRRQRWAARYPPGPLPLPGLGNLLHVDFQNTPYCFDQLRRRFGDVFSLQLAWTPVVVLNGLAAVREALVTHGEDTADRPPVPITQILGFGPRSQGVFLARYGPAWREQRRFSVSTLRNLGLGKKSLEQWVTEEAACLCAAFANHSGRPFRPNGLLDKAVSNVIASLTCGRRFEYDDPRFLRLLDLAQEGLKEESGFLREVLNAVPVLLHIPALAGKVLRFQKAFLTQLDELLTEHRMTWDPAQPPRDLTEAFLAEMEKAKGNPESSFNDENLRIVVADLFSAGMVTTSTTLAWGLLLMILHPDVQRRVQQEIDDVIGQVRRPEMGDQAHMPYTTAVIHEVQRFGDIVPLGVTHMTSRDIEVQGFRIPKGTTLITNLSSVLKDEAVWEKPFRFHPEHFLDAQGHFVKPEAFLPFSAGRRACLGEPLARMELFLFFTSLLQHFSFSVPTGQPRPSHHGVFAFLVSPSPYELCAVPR

CC1(C)CC[C@]2(NC(=O)C(C)(F)F)CC[C@]3(C)[C@H](C(=O)C=C4[C@@]5(C)C=C(C#N)C(=O)C(C)(C)[C@@H]5CC[C@]43C)[C@@H]2C1 [RTA 408, N-((4aS,6aR,6bS,8aR,12aS,14aR,14bS)-11-cyano-2,2,6a,6b,9,9,12a-heptamethyl-10,14-dioxo-1,2,3,4,4a,5,6,6a,6b,7,8,8a,9,10,12a,14,14a,14b-octadecahydropicen-4a-yl)-2,2-difluoropropanamide]
Increase in the corrected QT interval (on average) (cardiovascular function; 100 mg/kg oral, not considered treatment related): 1.6%
Cardiovascular function (cardiovascular function; oral, doses up to and including 100 mg/kg): produced no effects on cardiovascular function
Lowest concentration at which induction of Nrf2 target genes was evident [1]: 15.6 nM
inhibition at 3 µM (CYP2D6): < 50%
Average clinical dermatitis score ([2]; 0.1% to 1% topical formulations): statistically significant improvement in the scores
% Days ≧ 2 (dermatitis score) ([2]; topical 0.01%): 54%
% Days ≧ 3 (dermatitis score) ([2]; topical 0.01%): 29%
% Days ≧ 2 (dermatitis score) ([2]; topical 0.1%): 40%
% Days ≧ 3 (dermatitis score) ([2]; topical 0.1%): 13%
% Days ≧ 3 (dermatitis score) ([2]; topical 1%, vehicle 33%): 6%
% Days ≧ 2 (dermatitis score) ([2]; topical 1%, vehicle 60%): 21%
IC50 ([3]; not viability normalized, read-out: NIH3T3/NF-κB IC50): 1.2 µM
IC50 ([3]; viability normalized, read-out: NIH3T3/NF-κB IC50, normalized for viability): 1.4 µM
fraction unbound [4]: 0.05
Animals with Mild trichrome staining intensity ([5]; 3 mg/kg): 0
Animals with Minimal trichrome staining intensity ([5]; 3 mg/kg): 0
Animals with Moderate trichrome staining intensity ([5]; 3 mg/kg): 7
Animals with Mild trichrome staining intensity ([5]; 10 mg/kg): 4
Animals with Minimal trichrome staining intensity ([5]; 10 mg/kg): 3
Animals with Moderate trichrome staining intensity ([5]; 10 mg/kg): 1
Tolerability of 30-mg/kg dose (stopped on day 14) ([5]; 30 mg/kg daily oral gavage): excessive dehydration and diarrhea
PMN cell infiltration into the lungs [5, 7]: significantly suppressed polymorphonuclear (PMN) cell infiltration into the lungs
Reduction in hydroxyproline deposition [5, 7]: 10%-20%
Lung Nrf2 target enzyme activity ([5]; rats exposed to bleomycin): significantly and dose-dependently increased NQO1, Txnrd, Gsr, and Gst enzyme activity
Transaminases [6]: Transaminase elevations were observed
